Data set [1] can be described thus: Thermal stability by thermogravimetric analysis (TGA). The note with it: 25° C. to 550° C. at 20° C./min under nitrogen, then air to 700° C., platinum pan. The class given is physicochemical. The method, then: The thermal stability of the imidazolium-type ionic oligomers was measured by thermogravimetric analysis (TGA).^42 The onset decomposing temperatures (ODTs) and residue percentages (RPs) are summarized hereinbelow in Table 1.
General: All reagents were commercially obtained from Aldrich Chemical Co. and were used without further purification unless otherwise noted. Solvents were of reagent grade and, if necessary, were dried by standard procedures. ^1H NMR, ^13C NMR and COSY NMR spectra were acquired using Varian Mercury 300 MHz, 400 MHz and Unity 500 MHz spectrometers respectively, equipped with Sun workstations. The proton chemical shifts were reported in parts per million on the δ scale, referenced to the residual proton resonance in CDCl3 (δ 7.24 ppm) or D2O (δ 4.67 ppm). The carbon chemical shifts were reported in parts per million on the δ scale, internally referenced to the solvent resonance in CDCl3 (δ 77.0 ppm). The proton and carbon assignments were made by standard gCOSY experiments. Melting points were taken using a standard melting point apparatus without correcting the thermometer. High resolution mass spectrometric analyses were performed on a VG Micromass ZAB 2F HS (FAB) or a Microm as Quattro II triple quadrupole mass spectrometer (Manchester, UK) equipped with an electrospray ionization source (ESI). Typically only the ion corresponding to the cation (C) component was analyzed. Thermogravimetric analysis (TGA) measurements were performed on a TGA Q500 from TA instruments. The running method used was ramped from 25° C. to 550° C., 20° C./min, under nitrogen, switching to air and then ramped at 20° C./min to 700° C. The type of pan used was platinum. High-pressure liquid chromatography (HPLC) analyses were performed using a reverse phase C18 column (Agilent Zorbax Extend-C18). The elution was performed using a linear gradient from 50% to 100% of B in A over 20 min, followed by a linear gradient elution from 100% to 50% of B in A over 10 min, where A is H2O/0.05% TFA (v/v) and B is CH3CN/0.05% TFA (v/v), at a flow rate of 0.8 mL/min. The eluted compounds were detected by UV absorbance at 210 nm. […]

A short description of data set [2]: Moisture affinity (absorption of moisture from the atmosphere). It counts as physicochemical.

SMILES strings stand for the structures. Structures can show the parent of a compound that is named as a salt.

Regarding `Cc1n(C)cc[n+]1CCCn1cc[n+](CCCBr)c1C` [Compound 5], in data set [1], the “Onset decomposing temperature (ODT)” value amounted to 239.4 °C and the “Residue percentage (RP)” value is given as 0.59%.

In general, melting point refers to the temperature, or range, at which the solid turns liquid. `Cc1n(C)cc[n+]1CCCn1cc[n+](CCCBr)c1C` (as salt: triflate) [Compound 5] showed a melting point of 76 to 78 °C.

For `Cc1n(C)cc[n+]1CCCn1cc[n+](CCCBr)c1C` [Compound 10], in data set [1], the “Onset decomposing temperature (ODT)” value amounted to 277.8 °C and the “Residue percentage (RP)” value stood at 0.50%.

In the case of `Cc1nccn1C` [Compound 1, 1,2-dimethylimidazole, reference compound], in data set [1], the “Onset decomposing temperature (ODT)” value turned out to be 80.6 °C and the “Residue percentage (RP)” value is recorded as 0.18%.

Compound `Cc1nccn1CCC[n+]1ccn(C)c1C` (as salt: triflate) [Compound 4] gave a melting point of 120 to 122 °C.

`Cc1nccn1CCC[n+]1ccn(CCC[n+]2ccn(C)c2C)c1C` [Compound 11] returned a melting point of 107 to 109 °C. For the same compound, the “Absorption of moisture from the atmosphere” value (“Absorption of moisture” for short) in data set [2] is listed as “did substantially not absorb moisture”. Further, in data set [1], the “Onset decomposing temperature (ODT)” value worked out at 326.2 °C and the “Residue percentage (RP)” value came to 1.76%.

Consider `Cc1n(C)cc[n+]1CCCn1cc[n+](CCCBr)c1C` (as salt: triflate) [Compound 10], for which the melting point was 84 to 86 °C.

With `Cc1n(C)cc[n+]1CCCBr` (as salt: bromide) [Compound 2], the melting point lay within 96 to 98 °C.

Take `Cc1n(C)cc[n+]1CCCBr` [Compound 2]: in data set [1], the “Onset decomposing temperature (ODT)” value amounted to 215.8 °C and the “Residue percentage (RP)” value was determined as 0.10%.

`Cc1nccn1CCC[n+]1ccn(CCC[n+]2ccn(C)c2C)c1C` [Compound 6]: the melting point lay within 121 to 123 °C. For the same compound, the “Absorption of moisture” value in data set [2] is recorded as “did substantially not absorb moisture”. Further, in data set [1], the “Onset decomposing temperature (ODT)” value worked out at 329.6 °C and the “Residue percentage (RP)” value was determined as 1.38%.

For the compound `Cc1n(C)cc[n+]1CCCn1cc[n+](CCCBr)c1C` (as salt: bromide) [Compound 9], the melting point is 201 to 203 °C.

Regarding `Cc1n(C)cc[n+]1CCCn1cc[n+](CCCBr)c1C` [Compound 9], in data set [1], the “Onset decomposing temperature (ODT)” value is 212.2 °C and the “Residue percentage (RP)” value was determined as 1.89%.

Take `Cc1nccn1CCC[n+]1ccn(C)c1C` (as salt: bromide) [Compound 3]: the melting point was in the range of 159 to 161 °C.

`Cc1nccn1CCC[n+]1ccn(C)c1C` [Compound 4]: the “Absorption of moisture” value in data set [2] is given as “significantly slower rate than compound 2”. In addition, in data set [1], the “Onset decomposing temperature (ODT)” value amounted to 293.9 °C and the “Residue percentage (RP)” value stood at 1.71%.

For the compound `Cc1nccn1CCC[n+]1ccn(C)c1C` [Compound 3], in data set [2], the “Absorption of moisture” value is listed as “significantly slower rate than compound 2”. In data set [1], the “Onset decomposing temperature (ODT)” value was determined as 287.8 °C and the “Residue percentage (RP)” value was 1.53%.

For the origin of these results see patent publication US8168801B2, “Imidazolium-type ionic oligomers” (The Royal Institution for the Advancement of …, priority 2007, dated 2012).
